# Results taken from patent publication US20100292214A1, “Compounds with Antiparasitic Activity, Applications thereof to the Treatment of Infectious Diseases Caused by Apicomplexans” (commissariat a l'Energie Atomique, priority 2007, published 2010).
# Counter-ions that a name gives are not always drawn.
# Legend:
# [1] = tested on: asynchronous 3D7 chloroquine-sensitive P. falciparum infected red blood cells; assay: Labeled hypoxanthine incorporation assay (in vitro anti-malarial activity); type: cell-based; conditions: Plasmodium falciparum, 3D7, Erythrocyte, 3D7 chloroquine-sensitive strain, infected RBC, 48 h contact, [3H]-hypoxanthine incorporation; two independent experiments in duplicates; read-out: IC50 assessed on Plasmodium Falciparum
# [2] = tested on: Toxoplasma gondii RH-β1 strain; assay: microbe, parasite or virus in culture; type: cell-based; conditions: Toxoplasma gondii, read-out: IC50 assessed on Toxoplama Gondii
Compound,IC50 [1],IC50 [2]
"C[C@@H](COC(=O)N1CCC(n2c(=O)[nH]c3ccccc32)C1)N(Cc1ccccc1)Cc1ccccc1 (stereo partly drawn) [Compound 17, (S)-2-(dibenzylamino)propyl 3-(1,2-dihydro-2-oxobenzo[d]imidazol-3-yl)pyrrolidine-1-carboxylate]",7.18 µM,3.3 µM
"O=C(OCCN(Cc1ccccc1)Cc1ccc(Cl)cc1)N1CCC(n2c(=O)[nH]c3ccccc32)CC1 [Compound 150, 2-(benzyl(4-chlorobenzyl)amino)ethyl 4-(2-oxo-2,3-dihydro-1H-benzo[d]imidazol-1-yl)piperidine-1-carboxylate]",2.59 µM,1.5 µM
"O=C(OCCCN(Cc1ccccc1)Cc1ccc([N+](=O)[O-])cc1)N1CCC(n2c(=O)[nH]c3ccccc32)CC1 [Compound 114, 3-(benzyl(4-nitrobenzyl)amino)propyl 4-(2-oxo-2,3-dihydro-1H-benzo[d]imidazol-1-yl)piperidine-1-carboxylate hydrochloride]",3.17 µM,3.3 µM
"O=C(OCCC(c1ccccc1)c1ccccc1)N1CCC(n2c(=O)[nH]c3ccccc32)CC1 [Compound 36, 3,3-diphenylpropyl 4-(1,2-dihydro-2-oxobenzo[d]imidazol-3-yl)piperidine-1-carboxylate]",8.54 µM,1.2 µM
"C[C@@H](COC(=O)N1CCC(n2c(=O)[nH]c3ccccc32)CC1)N(Cc1ccccc1)Cc1cccc2ccccc12 [Compound 138, (S)-2-(benzyl(naphthalen-1-ylmethyl)amino)propyl 4-(2-oxo-2,3-dihydro-1H-benzo[d]imidazol-1-yl)piperidine-1-carboxylate hydrochloride]",2.55 µM,3.75 µM
"C[C@@H](COC(=O)N1CCC(n2c(=O)[nH]c3cc4ccccc4cc32)CC1)N(Cc1ccccc1)Cc1ccccc1 [Compound 12, (S)-2-(dibenzylamino)propyl 4-(1,2-dihydro-2-oxonaphtho[2,3-d]imidazol-3-yl)piperidine-1-carboxylate]",7.2 µM,0.75 µM
"O=c1[nH]c2ccccc2n1C1CCN(C(=S)OCCN(Cc2ccccc2)Cc2ccccc2)CC1 [Compound 46, O-2-(dibenzylamino)ethyl 4-(1,2-dihydro-2-oxobenzo[d]imidazol-3-yl)piperidine-1-carbothioate]",2.84 µM,0.181 µM
"COc1cccc(CN(CCCOC(=O)N2CCC(n3c(=O)[nH]c4ccccc43)CC2)Cc2ccccc2)c1 [Compound 149, 3-(benzyl(3-methoxybenzyl)amino)propyl 4-(2-oxo-2,3-dihydro-1H-benzo[d]imidazol-1-yl)piperidine-1-carboxylate hydrochloride]",0.588 µM,3.5 µM
